How the values were obtained:
[1] = system: HBV-Core-specific and HBV-Polymerase-specific T cells producing IFNγ; assay: IFNγ-ELISpot, HBV-specific T cell responses (Full pool Core, VSA, N13F) in HBV-persistent mice; type: in vivo, C57BL/6J mice; conditions: splenocytes, day 76; cutoff 50 spots/10^6 cells; sildenafil 20 mg/kg/day D31-59 or D48-76
Experimental: The capacity of splenocytes to produce IFNγ after different in vitro stimulations was measured by an IFNγ-ELISpot assay at day 76 post AAV2/8-HBV injection. HBV-specific responses were assessed using the HBV-Core peptides (A, Full pool Core), -polymerase specific peptide VSA (B) or N13F (C). Results are shown as the number of spots per 10^6 splenocytes. Each dot represents an individual mouse and thick line represents mean values for each group (+/−SEM). The horizontal gray line represents the technical cutoff value (50 spots/10^6 cells) above which values are considered as positive T cell responses. For groups with a positive T cell response, incidence of mice per group is indicated on the graph.
The capacity of splenocytes to produce IFNγ after different in vitro stimulations was measured by an IFNγ-ELISpot assay at day 76 post AAV2/8-HBV injection. HBV-specific responses were assessed using the HBV-Core peptides (Full pool Core), -polymerase specific peptide VSA or N13F. Shown are mean values of responder mice (>50 spots/10^6 cells) (mean, SEM). […]
The HBV persistent mice used in the study were described by Dion et al. (2013, J Virol, 87(10):5554-63). […] This allows the analysis of HBV-specific viral parameters (HBsAg, HBeAg, HBcAg and viremia) as well as immunological read-outs (ICS, ELISpot or humoral immune responses). […]

[2] = system: anti-HBc antibodies; assay: Anti-HBc antibody level by ELISA in HBV-persistent mice; type: in vivo, C57BL/6J mice; conditions: serum 1/2000, up to day 76; sildenafil 20 mg/kg/day D31-59 or D48-76
Description: Graphs A-F illustrate anti-HBc antibody levels determined respectively in individual mice of the six study groups 1-6. Individual mice are shown as thin line and the group mean titers as bold dotted black line. In all graphs the Y-axis indicates the anti-HBc levels (OD450) and the X-axis the time (number of days post-AAV2/8-HBV injection). Time points of immunization (D36, D43, D50) are shown by a dashed line and the period of sildenafil treatment is shown by a horizontal bar on the top of the graph.
The HBV persistent mice used in the study were described by Dion et al. (2013, J Virol, 87(10):5554-63). The model is based on the introduction in mice of an adeno-associated virus (AAV) encoding for a full length HBV genome (AAV2/8-HBV) and causing the production of infectious HBV particles in mouse livers. This allows the analysis of HBV-specific viral parameters (HBsAg, HBeAg, HBcAg and viremia) as well as immunological read-outs (ICS, ELISpot or humoral immune responses). […]
96-well Immulon 4HBX plates (Thermo Scientific) were coated overnight at +4° C. with 100 μL of recombinant HBc (Prospec) diluted to 1 μg/mL in BupH Carbonate-Bicarbonate buffer (Thermo Scientific Cat#28382). […] Ten minutes later, reaction was stopped by adding of 100 μL per well of 1N HCl and optic density was measured at 450 nm with Tecan Infinity 200 reader. […]

In the case of CCCc1nn(C)c2c(=O)nc(-c3cc(S(=O)(=O)N4CCN(C)CC4)ccc3OCC)[nH]c12 [sildenafil, 1-[[3-(4,7-dihydro-1-methyl-7-oxo-3-propyl-1H-pyrazolo[4,3-d]pyrimidin-5-yl)-4-ethoxyphenyl]sulfonyl]-4-methylpiperazine], the “HBV-specific IFNg producing T responses (Full pool core, VSA, N13F)” value [1] is reported as “did not show any IFNg producing T responses” and the “anti-HBc antibodies induction (OD450)” value [2] is reported as “no anti-HBc antibodies were induced”.

— US20190328869A1, “IMMUNOTHERAPEUTIC PRODUCT AND MDSC MODULATOR COMBINATION THERAPY” (Transgene SA, priority 2016, published 2019)
